Reference: paper PMC10945555, “Improving Activity of New Arylurea Agents against Multidrug-Resistant and Biofilm-Producing Staphylococcus epidermidis” (ACS Medicinal Chemistry Letters, 2024)
Converted amounts (≈) assume the structure as drawn. Where two headings read alike, the source gives them in different places.

Experiments:
[1] = test system: Staphylococcus aureus ATCC BAA-976; assay: MIC, broth microdilution, MDR/BPSA reference strain; type: cell-based
Text: (§1) These strains included susceptible, multidrug-resistant, and biofilm-producing strains of S. epidermidis and S. aureus (MSSE, MDR/BPSE, and MDR/BPSA, respectively). The cornerstone antibiotic linezolid served as a positive control (Table 1). The impact of structural modifications at the aryloxy fragment and the aromatic moiety bound to the propyl linker on the inhibitory activity was initially investigated. […] Further optimization focused on evaluating the impact of the type of substituent and its position on the arylsulfonamide fragment’s activity.
(§2) 2 Biological assay protocols
(§3) Microbiological tests were carried out under aseptic conditions in a laminar chamber of the 2nd […]
(§4) (BioTectum 1.2, Alchem Poland). The assessment of antimicrobial activity was carried out for final compounds in the form of free bases, soluble in DMSO (Merck, Germany), at the initial […]
(§5) concentration of 1 mg/mL. […]
(§6) were provided by Cayman Chemical, USA.
(§7) The activity of all newly synthesized compounds was tested in vitro on a panel of selected reference strains from the American Type Culture Collection (ATCC) of Gram-positive […]
(§8) 2.2 Effect of evaluated compounds on planktonic cells
(§9) The susceptibility of three reference bacterial strains (Staphylococcus epidermidis ATCC […]
(§10) Table S1) and 81 clinical MDR S. epidermidis (Table S2) to the tested compounds was assessed by determining the MIC value (Minimal Inhibitory Concentration) by microdilution in a liquid medium in 96-well flat-bottom cell culture plates (Nest Biotechnology Scientific, USA). The antibacterial properties of the compo unds were tested in the concentration range from 50 µg/mL to 0.1 µg/mL by making a series of double dilutions of the compound in liquid Mueller -Hinton II Broth Cation Adjusted (MHB II, BBL TM, USA) according to the European Committee on […]
(§11) Antimicrobial Susceptibility Testing guidelines (EUCAST).2,3 The determinations were performed twice. The MIC50 and MIC90 values were determined for each of the tested

[2] = test system: Staphylococcus epidermidis ATCC 35984; assay: MIC, broth microdilution, MDR/BPSE reference strain; type: cell-based; conditions: for MIC: Staphylococcus epidermidis, ATCC35984, read-out: MIC MDR/BPSE, Staphylococcus epidermidis ATCC 35984
Text: as §1, §2, §3, §4, §5, §6, §7, §8, §9, §10, §11

[3] = test system: Staphylococcus epidermidis ATCC 12228; assay: MIC, broth microdilution, MSSE reference strain; type: cell-based
Text: as §1, §2, §3, §4, §5, §6, §7, §8, §9, §10, §11

[4] = test system: reference susceptible and multidrug-resistant S. epidermidis and S. aureus strains; assay: MIC, reference S. epidermidis and S. aureus strains (hit screening); type: cell-based
Text: (§12) Despite numerous efforts to ensure sterility and encourage the prudent use of currently available antibiotics, morbidity rates persist at high levels. These findings underscore the pressing need for the development of a novel class of potential antimicrobial agents targeting multidrug-resistant and biofilm-forming S. epidermidis. […] Herein we present the discovery of new aryloxy[1-(thien-2-yl)propyl]piperidines with improved antibacterial activity compared to compound I, evaluated against a spectrum of clinical S. epidermidis isolates (81 strains), including multidrug-resistant and biofilm-forming strains. We also determined their bacteriostatic/bactericidal properties and conducted a real-time analysis of bacterial growth. Finally, we evaluated the ability of the most promising compound, 25, in terms of its activity and safety over mammalian cell lines, to disrupt the staphylococcal cell membranes of clinical S. epidermidis.

[5] = test system: Escherichia coli ATCC 25922; assay: MIC, Gram-negative reference strain; type: cell-based; conditions: Escherichia coli, ATCC25922
Description: as §2, §3, §4, §5, §6, §7, §8, §9, §10, §11

[6] = test system: Pseudomonas aeruginosa ATCC 27853; assay: MIC, Gram-negative reference strain; type: cell-based; conditions: Pseudomonas aeruginosa, ATCC27853, read-out: MIC P. aeruginosa
Description: as §2, §3, §4, §5, §6, §7, §8, §9, §10, §11

[7] = test system: Acinetobacter baumannii ATCC 19606; assay: MIC, Gram-negative reference strain; type: cell-based; conditions: Acinetobacter baumannii, ATCC19606
Description: as §2, §3, §4, §5, §6, §7, §8, §9, §10, §11

Gram-negative bacteria = assay: MIC, tested Gram-negative bacteria (hit screening); type: cell-based
Text: as §12

H9c2 cells = assay: Cytotoxicity, MTT assay, cardiomyocytes; type: cell-based; conditions: Rattus norvegicus, 24 h, n = 3
Description: (§13) The following cell models were used in the research: rat cardiomyocytes (H9c2 line) and human skin fibroblasts (BJ line). All cell lines used in the work are commercially available and were purchased from ATCC banks (the American Type Culture Collection, Manassas, VI, USA). Cell cultures were carried out in an incubator under standard conditions (37°C, 5% CO 2).
(§14) Culture media (Dulbecco's Modified Eagle's Medium -DMEM (H9c2) and Eagle's Minimum Essential Medium-EMEM (BJ) were supplemented with 10% bovine serum and a 1% mixture of penicillin and streptomycin antibiotics. […]
(§15) doxorubicin (a cytotoxic drug) were used as reference and positive control, respectively. […]
(§16) incubated with studied compound in appropriate concentration for next 24 h. Then MTT solution (5 mg/mL) was transferred into culture medium of incubated cells. After 3 h, once dark crystals of formazan were produced in cells, medium was aspirated and 100 μ L of DMSO was added to dissolve formazan. Absorbance of DMSO solution was read on a multiwell plate reader (Spectra Max iD3, Molecular Devices) at 570 nm. In order to determine viability, absorbance of experimental wells was divided by absorbance of contro l well (not treated) and multiplied by 100 (%). Three separate experiments were performed. IC 50 was calculated using non-linear regression method in OriginPro software. […]

BJ cells = assay: Cytotoxicity, MTT assay, skin fibroblasts; type: cell-based, human; conditions: Homo sapiens, MTT, 24 h, n = 3
Description: as §13, §14, §15
as §16, with “solution” for “incubated with studied compound in appropriate concentration for next 24 h. Then MTT solution”

[8] = ATCCBAA976, Staphylococcus aureus ATCC BAA-976, read-out: MIC MDR/BPSA
[9] = ATCC12228, Staphylococcus epidermidis ATCC 12228, read-out: MIC MSSE
[10] = Staphylococcus aureus, ATCCBAA976, read-out: MIC MDR/BPSA

Compound | MIC [1, 8] [µg/mL] | MIC [2] [µg/mL] | MIC [3, 9] [µg/mL] | MIC [1, 10] [µg/mL] | also measured
O=S(=O)(NC1CCN(CCC(Oc2ccc(C(F)(F)F)cc2)c2cccs2)CC1)c1ccccc1 (stereo not shown) [Compound 15] | 12.5 (≈ 23.8 µM) | 6.25 (≈ 11.9 µM) | 12.5 (≈ 23.8 µM) | – | –
O=S(=O)(NC1CCN(CCC(Oc2ccc(C(F)(F)F)cc2)c2cccs2)CC1)c1ccc(Cl)cc1 (stereo not shown) [Compound 23] | 6.25 (≈ 11.2 µM) | 0.2 (≈ 0.358 µM) | 12.5 (≈ 22.4 µM) | – | –
O=S(=O)(NC1CCN(CCC(Oc2ccc(C(F)(F)F)cc2)c2cccs2)CC1)c1ccc(F)cc1 (stereo not shown) [Compound 22] | 6.25 (≈ 11.5 µM) | 1.6 (≈ 2.95 µM) | 6.25 (≈ 11.5 µM) | – | –
O=S(=O)(NC1CCN(CCC(Oc2cccc(C(F)(F)F)c2)c2ccccc2)CC1)c1cccc(Cl)c1 (stereo not shown) [I] | – | 3.12 (≈ 5.65 µM) | – | 3.12 (≈ 5.65 µM) | MIC [4]: 3.12 to 6.25 µg/mL (≈ 5.65 to 11.3 µM); MIC [5]: 50 µg/mL (≈ 90.4 µM); MIC [6]: 50 µg/mL (≈ 90.4 µM); MIC [7]: 50 µg/mL (≈ 90.4 µM); activity towards Gram-negative bacteria (Gram-negative bacteria): Not active; MIC (Gram-negative bacteria; tested Gram-negative bacteria): ≥ 25 µg/mL; MIC MDR/BPSE ([2]; Staphylococcus epidermidis ATCC 35984): 6.25 µg/mL (≈ 11.3 µM); MIC ([3]; ATCC12228, read-out: MIC MSSE): 3.12 µg/mL (≈ 5.65 µM)
O=S(=O)(NC1CCN(CCC(Oc2ccc(C(F)(F)F)cc2)c2cccs2)CC1)c1cccc(F)c1 (stereo not shown) [Compound 17] | – | 6.25 (≈ 11.5 µM) | 12.5 (≈ 23 µM) | 6.25 (≈ 11.5 µM) | –
Cc1cccc(S(=O)(=O)NC2CCN(CCC(Oc3ccc(C(F)(F)F)cc3)c3cccs3)CC2)c1 (stereo not shown) [Compound 19] | 50 (≈ 92.8 µM) | 0.2 (≈ 0.371 µM) | 50 (≈ 92.8 µM) | – | –
O=C(Nc1ccc(Cl)cc1)NC1CCN(CCC(Oc2ccc(C(F)(F)F)cc2)c2cccs2)CC1 (stereo not shown) [Compound 27] | – | ≥ 6.25 | 50 (≈ 92.9 µM) | – | –
O=S(=O)(NC1CCN(CCC(Oc2ccc(C(F)(F)F)cc2)c2cccs2)CC1)c1ccccc1Cl (stereo not shown) [Compound 16] | 50 (≈ 89.4 µM) | 6.25 (≈ 11.2 µM) | 50 (≈ 89.4 µM) | – | –
O=C(Nc1ccc(F)cc1)NC1CCN(CCC(Oc2ccc(C(F)(F)F)cc2)c2cccs2)CC1 (stereo not shown) [Compound 26] | – | ≥ 6.25 | 50 (≈ 95.9 µM) | – | –
O=C(Nc1ccccc1)NC1CCN(CCC(Oc2ccc(C(F)(F)F)cc2)c2cccs2)CC1 (stereo not shown) [Compound 24] | – | 6.25 (≈ 12.4 µM) | – | 6.25 (≈ 12.4 µM) | MIC ([3]; ATCC12228, read-out: MIC MSSE): 6.25 µg/mL (≈ 12.4 µM)
COc1cccc(S(=O)(=O)NC2CCN(CCC(Oc3ccc(C(F)(F)F)cc3)c3cccs3)CC2)c1 (stereo not shown) [Compound 20] | 25 (≈ 45.1 µM) | 0.1 (≈ 0.18 µM) | 50 (≈ 90.1 µM) | – | –
COc1cccc2c1C(=O)c1c(O)c3c(c(O)c1C2=O)C[C@@](O)(C(=O)CO)C[C@@H]3O[C@H]1C[C@H](N)[C@H](O)[C@H](C)O1 [doxorubicin, reference compound] | – | – | – | – | IC50 (H9c2 cells): 0.39 µg/mL (≈ 0.718 µM); IC50 (BJ cells): 0.39 µg/mL (≈ 0.718 µM)
O=S(=O)(NC1CCN(CCC(Oc2cccc(C(F)(F)F)c2)c2cccs2)CC1)c1cccc(Cl)c1 (stereo not shown) [Compound 13] | – | 3.12 (≈ 5.59 µM) | – | 3.12 (≈ 5.59 µM) | MIC ([3]; ATCC12228, read-out: MIC MSSE): 3.12 µg/mL (≈ 5.59 µM)
